tested on: not listed separately; assay: Stability of the free dihydroxy acid on standing; assay type: physicochemical; details: dihydroxy acid can be maintained by increasing the pH above 7.0
Experimental: The sodium salt of the compound II from Example 64 is dissolved in 2 ml of ethanol-water (1:1; v:v) and added to 10 ml of 1N hydrochloric acid from which the dihydroxy acid is extracted with ethyl acetate. The organic extract is washed once with water, dried (Na2 SO4), and evaporated in vacuo with a bath temperature not exceeding 30° C. […] The dihydroxy acid can be maintained by increasing the pH above 7.0.

Compound	reversion of dihydroxy acid to parent lactone
CCC(C)(C)C(=O)O[C@H]1C[C@@H](CO)C[C@@H]2CC[C@H](C)[C@H](CC[C@@H](O)C[C@@H](O)CC(=O)O)[C@H]21 [Example 70]	slowly reverts to the corresponding,parent lactone on standing

tested on: HMG-CoA reductase; assay: HMG-CoA reductase inhibition assay (in vitro protocol of J. Med. Chem., 28, 347-358); assay type: biochemical; details: relative to compactin arbitrarily assigned a value of 100; IC50 compared with that of compactin determined simultaneously; tested as sodium salt of dihydroxy acid form; enzyme solubilized from rat liver microsomes
Sequence (P51639 425-887 limits assumed): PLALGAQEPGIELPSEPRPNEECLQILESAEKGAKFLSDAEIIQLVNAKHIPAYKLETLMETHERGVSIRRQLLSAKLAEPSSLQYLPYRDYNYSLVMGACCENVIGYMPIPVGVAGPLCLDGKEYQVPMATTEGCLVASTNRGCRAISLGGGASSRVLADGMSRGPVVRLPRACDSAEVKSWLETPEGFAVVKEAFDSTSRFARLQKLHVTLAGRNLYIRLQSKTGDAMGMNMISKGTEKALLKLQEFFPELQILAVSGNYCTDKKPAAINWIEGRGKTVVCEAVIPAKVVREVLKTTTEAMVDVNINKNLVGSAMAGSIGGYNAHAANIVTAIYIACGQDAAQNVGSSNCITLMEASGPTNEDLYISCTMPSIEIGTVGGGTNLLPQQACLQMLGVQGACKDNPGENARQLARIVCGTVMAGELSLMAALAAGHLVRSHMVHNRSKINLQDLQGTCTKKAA
Experimental: The intrinsic HMG-CoA reductase inhibition activity of the claimed compounds is measured in the in vitro protocol published in J. Med. Chem., 28, p. 347-358 (1985) and described below: Male Holtzman Sprague-Dawley rats (225-250 g) were kept on reversed lighting and fed Purina rat chow containing 3% cholestyramine for 7 days preceding their sacrifice by CO2 asphyxiation. Livers were removed 6 hours into the dark cycle and used immediately to prepare microsomes. HMG-CoA reductase was solubilized from the freshly prepared microsomes by the method of Heller and Shrewsbury [J. Biol. Chem., 1976, 251, 3815] and purified through the second ammonium sulfate precipitation step as described by Kleinsek et al. [Proc. Natl. Acad. Sci. USA, 1977, 74, 1431]. […] The enzyme preparation was stored at -80° C. The assay is essentially the procedure of Shefer et al. [J. Lipid Res., 1972, 13, 402]. The complete assay medium contained the following in a total volume of 0.8 ml: phosphate buffer, pH 7.2, 100 mM; MgCl2, 3 mM; NADP, 3 mM; glucose-6-phosphate, 10 mM; glucose-6-phosphate dehydro-genase, 3 enzyme units; reduced glutathione, 50 mM; HMG-CoA (qlutaryl-3-^14 C, New England Nuclear), 0.2 mM (0.1 μCi); and partially purified enzyme stock solution, 100 μL. […] After a 40-minute incubation at 37° C. with shaking and exposure to air, the reaction was stopped by the addition of 0.4 mL of 8N HCl. After an additional 30-minute incubation period at 37° C. to ensure the complete lactonization of mevalonic acid to mevalonolactone, 0.2 ml of the mixture was added to an 0.5×5.0 cm column containing 100-200 mesh Bio-Rex 5, chloride form (Bio-Rad), wetted with distilled water, as described by Alberts et al. [Proc. Natl. Acad. Sci. U.S.A., 1980, 77, 3967]. The unreacted [^14 C]HMG-CoA was absorbed on the resin and the [^14 C]mevalonolactone was eluted with distilled water (2×1 ml) directly into 7-ml scintillation vials. Five milliliters of Aquasol-2 (New England Nuclear) was added to each vial, and radioactivity was measured in a Packard Tri Carb Prias scintillation counter. IC50 values were determined by plotting percentage inhibition against test compound concentration and fitting a straight line to the resulting data by using the least-squares method.

Compound	Relative Potency
6(R)-[2-[8(S)-(2,2-Dimethylbutyryloxy)-2(S)-methyl-6(S)-(N,N-dimethyl)aminocarbonyl-1,2,3,4,4a(S),5,6,7,8,8a(S)-decahydronaphthyl-1(S)]-ethyl]-4(R)-hydroxy-3,4,5,6-tetrahydro-2H-pyran-2-one [-- -- -- S CONMe2 1,1-dimethylpropyl]	75
6(R)-[2-[8(S)-(2,2-Dimethylbutyryloxy)-2(S)-methyl-6(S)-(α-hydroxybenzyl)-1,2,3,4,4a(S),5,6,7,8,8a-(S)-decahydronaphthyl-1(S)]ethyl]-4(R)-hydroxy-3,4,5,6-tetrahydro-2H-pyran-2-one [-- -- -- S CHOHPH 1,1-dimethylpropyl]	220
6(R)-[2-[8(S)-(2,2-Dimethylbutyryloxy)-2(S)-methyl-6(S)-aminocarbonyl-1,2,3,4,4a(S),5,6,7,8,8a(S)-decahydronaphthyl-1(S)]ethyl]-4(R)-hydroxy-3,4,5,6- tetrahydro-2H-pyran-2-one [-- -- -- S CONH2 1,1-dimethylpropyl]	107
6(R)-[2-[8(S)-(2,2-Dimethylbutyryloxy)-2(S)-methyl-6(S)-carboxy-1,2,3,4,4a(S),5,6,7,8,8a(S)-decahydronaphthyl-1(S)]-ethyl]-4(R)-hydroxy-3,4,5,6-tetrahydro-2H-pyran-2-one [-- -- -- S CO2 H 1,1-dimethylpropyl]	79
6(R)-[2-[8(S)-(2,2-Dimethylbutyryloxy)-2(S)-methyl-6(S)-ethoxycarbonyl-1,2,3,4,4a(S),5,6,7,8,8a(S)-decahydronaphthyl-1(S)]ethyl]-4(R)-hydroxy-3,4,5,6-tetrahydro-2H-pyran-2-one [-- -- -- S CO2 Et 1,1-dimethylpropyl]	125
6(R)-[2-[8(S)-(2,2-Dimethylbutyryloxy)-2(S)-methyl-6(S)-isopropoxycarbonyl-1,2,3,4,4a(S),5,6,7,8,8a(S)-decahydronaphthyl-1(S)]ethyl]-4(R)-hydroxy-3,4,5,6-tetrahydro-2H-pyran-2-one [-- -- -- S CO2-i-Pr 1,1-dimethylpropyl]	80
6(R)-[2-[8(S)-(2,2-Dimethylbutyryloxy)-6(R)-(2,2-dimethylbutyryloxymethyl)-2(S)-methyl-1,2,3,4,6,7,8,8a(R)-octahydronaphthyl-1(S)]-ethyl]-4(R)-hydroxy-3,4,5,6-tetrahydro-2H-pyran-2-one	33
6(R)-[2-[8(S)-(2,2-Dimethylbutyryloxy)-6(R)-carboxy-2(S)-methyl-1,2,6,7,8,8a(R)-hexahydronaphthyl-1(S)]ethyl]-4(R)-hydroxy-3,4,5,6-tetrahydro-2H-pyran-2-one [db -- db R CO2 H 1,1-dimethylpropyl]	94
6(R)-[2-[8(S)-(2,2-Dimethylbutyryloxy)-6(R)-hydroxymethyl-2(S)methyl-1,2,3,4,6,7,8,8a(R)-octahydronaphthyl-1(S)]ethyl]-4(R)-hydroxy-3,4,5,6-tetrahydro-2H-pyran-2-one [db -- -- R CH2 OH 1,1-dimethylpropyl]	213
6(R)-[2-[8(S)-(2,2-Dimethylbutyryloxy)-6(S)-(N,N-dimethyl)aminocarbonyl-2(S)methyl-1,2,6,7,8,8a(R)-hexahydronaphthyl-1(S)]ethyl]-4(R)-hydroxy-3,4,5,6-tetrahydro-2H-pyran-2-one [db -- db S CONMe2 1,1-dimethylpropyl]	82
6(R)-[2-[8(S)-(2,2-Dimethylbutyryloxy)-6(S)-carboxy-2(S)-methyl-1,2,6,7,8,8a(R)-hexahydronaphthyl-1(S)]ethyl]-4(R)-hydroxy-3,4,5,6-tetrahydro-2H-pyran-2-one [db -- db S CO2 H 1,1-dimethylpropyl]	99
6(R)-[2-[8(S)-(2,2-Dimethylbutyryloxy)-6(S)-hydroxymethyl-2(S)-methyl-1,2,6,7,8,8a(R)-hexahydronaphthyl-1(S)]ethyl]-4(R)-hydroxy-3,4,5,6-tetrahydro-2H-pyran-2-one [db -- db S CH2 OH 1,1-dimethylpropyl]	189
6(R)-[2-[8(S)-(2,2-dimethylbutyryloxy)-2(S)-methyl-6(R)-(1-hydroxyethyl)-1,2,3,4,4a(S),5,6,7,8,8a(S)-decahydronaphthyl-1(S)]ethyl]-4(R)-hydroxy-3,4,5,6-tetrahydro-2H-pyran-2-one [-- -- -- R CHOHCH3 (ISOMER A) 1,1-dimethylpropyl]	111
6(R)-[2-[8(S)-(2,2-dimethylbutyryloxy)-2(S)-methyl-6(R)-(1-hydroxyethyl)-1,2,3,4,4a(S),5,6,7,8,8a(S)-decahydronaphthyl-1(S)]ethyl]-4(R)-hydroxy-3,4,5,6-tetrahydro-2H-pyran-2-one [-- -- -- R CHOHCH3 (ISOMER B) 1,1-dimethylpropyl]	104
6(R)-[2-[8(S)-(2,2-dimethylbutyryloxy)-2(S)-methyl-6(S)-(1-hydroxyethyl)-1,2,3,4,4a,(S),5,6,7,8,8a(R)-decahydronaphthyl-1(S)]ethyl]-4(R)-hydroxy-3,4,5,6-tetrahydro-2H-pyran-2-one [-- -- -- S CHOHCH3 (ISOMER A) 1,1-dimethylpropyl]	131
6(R)-[2-[8(S)-(2,2-dimethylbutyryloxy)-2(S)-methyl-6(S)-(1-hydroxyethyl)-1,2,3,4,4a,(S),5,6,7,8,8a(R)-decahydronaphthyl-1(S)]ethyl]-4(R)-hydroxy-3,4,5,6-tetrahydro-2H-pyran-2-one [-- -- -- S CHOHCH3 (ISOMER B) 1,1-dimethylpropyl]	113
6(R)-[2-[8(S)-(2,2-dimethylbutyryloxy)-2(S)-methyl-6(S)-(2,2-dimethylbutyryloxymethyl)-1,2,3,4,4a(S),5,6,7,8,8a(S)-decahydronaphthyl-1(S)]ethyl]-4(R)-hydroxy-3,4,5,6-tetrahydro-2H-pyran-2-one	100
6(R)-[2-[8(S)-(2,2-dimethylbutyryloxy)-2(S)-methyl-6(S)-hydroxymethyl-1,2,3,4,4a(S),5,6,7,8,8a(S)-decahydronaphthyl-1(S)]ethyl]-4(R)-hydroxy-3,4,5,6- tetrahydro-2H-pyran-2-one [-- -- -- S CH2 OH 1,1-dimethylpropyl]	86
6(R)-[2-[8(S)-(2,2-dimethylbutyryloxy)-6(S)-(N,N-diethyl)aminocarbonyl-2(S)-methyl-1,2,6,7,8,8a(R)-hexahydronaphthyl-1(S)]ethyl]-4(R)-hydroxy-3,4,5,6-tetrahydro-2H-pyran-2-one [db -- db S CONEt2 1,1-dimethylpropyl]	65
6(R)-[2-[8(S)-(2-methylbutyryloxy)-2(S)-methyl-6(R)-(hydroxymethyl)-1,2,6,7,8,8a(R)-hexahydronaphthyl-1(S)]ethyl]-4(R)-hydroxy-3,4,5,6-tetrahydro-2H- pyran-2-one [db -- db R CH2 OH sec-butyl]	47
6(R)-[2-[8(S)-(2-methylbutyryloxy)-6(S)-carboxy-2(S)-methyl-1,2,6,7,8,8a(R)-hexahydronaphthyl-1(S)]ethyl]-4(R)-hydroxy-3,4,5,6-tetrahydro-2H-pyran-2- one [db -- db S CO2 H sec-butyl]	26
6(R)-[2-[8(S)-(Cyclohexylcarbonyloxy)-6(S)-hydroxymethyl-2(S)-methyl-1,2,3,4,4a(S),5,6,7,8,8a(S)-decahydronaphthyl-1(S)]ethyl]-4(R)-hydroxy-3,4,5,6-tetrahydro-2H-pyran-2-one [-- -- -- S CH2 OH cyclohexyl]	33
